# Tests used:
# [1] = test system: liver-derived macrophages; experiment: Liver-derived macrophage cell counts in liver sections after i.p. LPS; format: in vivo, mouse
# Experimental: Liver tissue derived from cIAP2^−/− (upper panels) and cIAP2^+/+ mice (lower panels) pre-treated with LPS (35 mg/kg) for 2 hours (a) or 6 hours (b). cell counts (n=5, average of 3 sections (average of 5 fields per section) per mouse, P<0.01) are shown within each anti-F4/80 FITC conjugated antibody stained panel along with the standard deviation.
# (§1) To determine the apoptotic sensitivity of cIAP2^−/− macrophages within an LPS-induced pro-inflammatory environment, the peritoneal macrophage cell numbers before and during an endotoxin-elicited response were assessed by trypan blue exclusion, Diff Quik™ staining kit and flow cytometry (using the macrophage marker PE conjugated α-F4/80 antibody). […] However, total lymphocyte cell count numbers (B and T cells) were comparatively unaffected in both animal types (FIG. 5D). In addition, at 5 hours post LPS injection both the peritoneal and splenic macrophages from cIAP2^−/− mice stained ˜100% positive for Annexin V (Table 5). Therefore, peritoneal and splenic macrophages from cIAP2^−/− mice undergoing LPS-induced endotoxic shock were highly sensitive to apoptotic stimuli compared to control littermates, in vivo. Liver-derived macrophages are key mediators of LPS-induced endotoxic shock (7, 12). Therefore, to further investigate the survival status of macrophages within LPS treated cIAP2^−/− mice we examined cell count levels of liver-derived macrophages within liver sections. Macrophage cell count numbers within both cIAP2^−/− and control mice were similar at 2 hours post-IP LPS treatment (FIG. 6A), 235+/−35 and 271+/−29, respectively (n=5, average of 3 sections (average of 5 fields per section) per mouse, P<0.01). However, at the 6 hour time point (FIG. 6B), there was a precipitous drop of liver-derived macrophages of the cIAP2^−/− mice, 21+/−12 versus that of the littermates, 148+/−19 (n=5, average of 3 sections (average of 5 fields per section) per mouse, P<0.01). Therefore, like peritoneal and splenic macrophages, the liver-derived macrophages from cIAP2^−/− are highly sensitive to LPS in vivo.
# [2] = test system: peritoneal-derived macrophages; experiment: Fas-induced death of peritoneal macrophages with or without LPS pre-treatment (TUNEL); format: cell-based, mouse; conditions: LPS 10 μg/ml, 4 h, α-Fas antibody 20 μg/ml
# Experimental: Peritoneal-derived macrophages from cIAP2^−/− (lower panels) and cIAP2^+/+ mice (upper panels) were either pre-treated with LPS for 4 h or not pre-treated prior to exposure to α-Fas antibody and then TUNEL stained to assess cell viability (A). Percentages of viable cells (n=5, average of triplicate wells per mouse, P values were <0.01) are shown within each TUNEL stained panel along with the standard deviation. cIAP2^−/−-derived (open shapes) and cIAP2^+/+-derived (solid shapes) T cells were pre-incubated with a range of IL-7 concentrations and then exposed to dexamethasone and T cell survival was monitored over a 12 h period (B) (n=3, average of triplicate wells per mouse, results are mean±s.d., P values at the 12 h point were <0.05). Peritoneal-derived cell numbers are shown for macrophages of cIAP2^−/− mice and littermate control cIAP2^+/+ mice injected i.p. with LPS(C). […]
# Confluent primary cultures of peritoneal-derived macrophages were either pre-treated with LPS (10 μg/ml, 4 h) or not pre-treated prior to exposure to α-Fas antibody (20 μg/ml, clone Jo2) and then TUNEL stained (Roche) to assess cell viability. Primary cultures of spleen derived T cells were pre-incubated with a range of IL-7 concentrations (0, 5, and 10 ng/ml) and then exposed to dexamethasone (100 nM) and T cell survival was monitored over a 12 h period.
# [3] = test system: peritoneal- and splenic-derived macrophages; experiment: Percentage and apoptotic status (Annexin V) of peritoneal and splenic macrophages after i.p. LPS; format: in vivo, mouse
# Experimental: as §1
# Adult 4-6 week old mice (n=6) were injected i.p. with LPS (35 mg LPS/kg) at time 0 and 5 hours the mice were euthanized and the cells of the peritoneum were collected and stained to determine macrophage, T and B cell percentages. The macrophages were also stained with FITC labeled Annexin V (Immunotech, Marseille, France) to determine apoptotic status.
# T and B cells were isolated from mouse lymphoid tissue (spleen) by first mincing and then pressing the tissue through a 10 μm metal mesh and were then counted by using trypan blue exclusion method. Macrophages were harvested from mice using an inter-peritoneal (i.p.) lavage ([…]: 5% FCS, 50 μM β-mercaptoethanol, […] L-glutamine, penicillin and streptomycin, at 4° C.) and washed once (centrifuged at 800 Xg for 15 min) and resuspended at ˜2×10^7 cells/ml for peritoneal macrophages. Subsequently, peritoneal macrophages were layered on 5 ml of room temperature Lympholyte-M (CedarLane, Canada) and centrifuged at 1500×g for 20 min at room temperature. For splenic macrophages 3 ml of the minced and pressed tissue (˜2×10^7 splenocytes/ml) was layered on 5 ml of room temperature Lympholyte-M (CedarLane, Canada) and centrifuged at 1500×g for 20 min at room temperature. Subsequently, either peritoneal or spleen-derived macrophages were collected from the interface layer, washed twice with complete DMEM and re-suspend in 1 ml complete DMEM. The resulting cells were then counted by using typan blue exclusion and Diff Quik™ Stain Kit (IMEB INC, San Marcos, Calif.). Cells (10^5-10^6) were incubated with the following conjugated monoclonal antibodies: α-CD3ε-flourescein isohiocyanate (FITC), CD4-phycoerythin (PE), CD8α-Cy-Chrome, CD69-PE; B229-FITC, B220-PE, CD11b-Cy-Chrome, (Pharmigen) F4/80-FITC and F4/80PE (Cedarlane Laoratories, Hornby, ON, Canada). Flow cytometric analyses were performed on a Coulter XL cytometer (Coulter, Canada). Concentrations of TNF-α and IL-1β, in primary tissue culture supernatants were determined by ELISA kit (R&D Systems).
# [4] = cIAP2+/+ mice, Peritoneal cavity, 0 hrs post-LPS
# [5] = cIAP2+/+ mice, Peritoneal cavity, 5 hrs post-LPS
# [6] = cIAP2+/+ mice, Spleen, 0 hrs post-LPS
# [7] = cIAP2+/+ mice, Spleen, 0 hrs post-LPS (first Spleen line)
# [8] = cIAP2−/− mice, Peritoneal cavity, 0 hrs post-LPS
# [9] = cIAP2−/− mice, Peritoneal cavity, 5 hrs post-LPS
# [10] = cIAP2−/− mice, Spleen, 0 hrs post-LPS
# [11] = cIAP2−/− mice, Spleen, 0 hrs post-LPS (first Spleen line)
substance,measurement,setting,value
lipopolysaccharide [LPS],Liver macrophage cell count,"[1]; cIAP2−/− mice, 2 hours post-IP LPS (35 mg/kg)",235+/−35
same,Liver macrophage cell count,"[1]; cIAP2−/− mice, 6 hour time point post LPS (35 mg/kg)",21+/−12
same,Liver macrophage cell count,"[1]; control mice, 2 hours post-IP LPS (35 mg/kg)",271+/−29
same,Liver macrophage cell count,"[1]; littermates, 6 hour time point post LPS (35 mg/kg)",148+/−19
same,Resistance to Fas-mediated killing with or without pre-exposure to LPS,[2]; cIAP2−/− macrophages,displayed no difference
same,Resistance to Fas-induced death after LPS pre-treatment,[2]; wild-type macrophages,showed the expected resistance to Fas-induced death
same,Percent apoptotic,[3]; [4],10 ± 2%
same,Percent macrophage,[3]; [4],54 ± 29%
same,Percent apoptotic,[3]; [5],66 ± 8%
same,Percent macrophage,[3]; [5],31 ± 17%
same,Percent apoptotic,[3]; [6],46 ± 8%
same,Percent macrophage,[3]; [6],28 ± 5%
same,Percent apoptotic,[3]; [7],5 ± 3%
same,Percent macrophage,[3]; [7],33 ± 15%
same,Percent apoptotic,[3]; [8],15 ± 3%
same,Percent macrophage,[3]; [8],41 ± 24%
same,Percent apoptotic,[3]; [9],100 ± 3%
same,Percent macrophage,[3]; [9],8 ± 11%
same,Percent apoptotic,[3]; [10],98 ± 4%
same,Percent macrophage,[3]; [10],24 ± 8%
same,Percent apoptotic,[3]; [11],2 ± 5%
same,Percent macrophage,[3]; [11],24 ± 11%
same,Macrophages positive for Annexin V (apoptotic),"[3]; cIAP2−/− mice, peritoneal and splenic macrophages, 5 hours post LPS injection",~100%

# Source: patent US20060123501A1, “Method for treating inflammatory disorders” (priority 2004, published 2006)
